Results on 35 compounds are retold here after ChEMBL document CHEMBL2375358, “Substituted thieno[2,3-d]pyrimidines as adenosine A2A receptor antagonists” (Bioorg Med Chem Lett, 2013).

In one data set the target is T1, Adenosine receptor A1 (Homo sapiens, UniProt P30542).
T1 sequence (P30542 whole entry): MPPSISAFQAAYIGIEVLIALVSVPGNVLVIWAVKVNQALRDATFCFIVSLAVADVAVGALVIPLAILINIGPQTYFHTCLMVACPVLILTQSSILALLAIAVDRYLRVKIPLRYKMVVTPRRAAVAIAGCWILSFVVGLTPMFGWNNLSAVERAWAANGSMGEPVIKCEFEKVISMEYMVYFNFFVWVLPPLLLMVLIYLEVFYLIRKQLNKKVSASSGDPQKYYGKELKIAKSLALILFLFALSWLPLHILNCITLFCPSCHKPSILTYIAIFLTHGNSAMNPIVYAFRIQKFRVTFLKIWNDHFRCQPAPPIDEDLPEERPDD
Put plainly: Antagonist activity at human adenosine A1 receptor expressed in CHOK1 cells assessed as inhibition of R-PIA/forskolin-induced cAMP accumulation incubated for 15 mins prior to R-PIA/forskolin challenge measured after 5.5 to 6 hrs by beta-galactosidase reporter gene assay. It counts as functional, cell-based, CHO-K1. On the technique in general: Cyclic AMP is a second messenger, typically raised through Gs and lowered through Gi signalling.

The target in the next data set is Adenosine receptor A2a (Homo sapiens, UniProt P29274). Put plainly: Antagonist activity at human adenosine A2a receptor expressed in CHOK1 cells assessed as inhibition of NECA/forskolin-induced cAMP accumulation incubated for 15 mins prior to NECA/forskolin challenge measured after 5.5 to 6 hrs by beta-galactosidase reporter gene assay. It counts as functional, cell-based, CHO-K1.
Adenosine receptor A2a, sequence (P29274 whole entry): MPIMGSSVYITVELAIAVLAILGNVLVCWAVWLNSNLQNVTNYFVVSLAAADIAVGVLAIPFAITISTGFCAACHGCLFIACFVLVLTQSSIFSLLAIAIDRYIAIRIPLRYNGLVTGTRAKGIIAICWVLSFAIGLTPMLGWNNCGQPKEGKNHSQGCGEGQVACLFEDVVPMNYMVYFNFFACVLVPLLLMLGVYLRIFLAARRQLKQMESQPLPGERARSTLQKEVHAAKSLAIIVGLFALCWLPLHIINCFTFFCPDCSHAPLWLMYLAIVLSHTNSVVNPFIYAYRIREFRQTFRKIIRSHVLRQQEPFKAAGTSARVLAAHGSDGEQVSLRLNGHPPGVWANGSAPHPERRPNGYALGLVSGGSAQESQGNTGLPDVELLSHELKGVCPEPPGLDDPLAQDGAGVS

For data set [1], the system named is Mus musculus. The data set can be described thus: Antiparkinsonian activity in mouse assessed as reversal of haloperidol-induced catalepsy at 3 mg/kg, po after 1 hr. It counts as functional, organism-based. Details: dose 3 mg/kg.
Data set [2] relates to Mus musculus. Put plainly: Antiparkinsonian activity in mouse assessed as reversal of haloperidol-induced catalepsy at 10 mg/kg, po after 1 hr. It counts as functional, organism-based. Details: dose 10 mg/kg.
For data set [3], the system named is Mus musculus. The data set can be described thus: Antiparkinsonian activity in po dosed mouse assessed as reversal of haloperidol-induced catalepsy after 1 hr. It counts as functional.
Data set [4] is described as follows: Clearance in rat at 2 mg/kg, iv and 10 mg/kg, po. It counts as ADME, organism-based. The note with it: in vivo.
Data set [5] is described as follows: Half life in rat at 10 mg/kg, po. It counts as ADME, organism-based. The arrangement: dose 10 mg/kg, route oral. The note with it: in vivo.
Data set [6] can be described thus: Cmax in rat at 10 mg/kg, po. It counts as ADME, organism-based. The arrangement: dose 10 mg/kg, route oral. The note with it: in vivo.
The subject of data set [7] is Mus musculus. Put plainly: Antiparkinsonian activity in mouse assessed as reversal of haloperidol-induced catalepsy at 10 mg/kg, po after 2 to 4 hrs. Details: dose 10 mg/kg. It counts as functional, organism-based.
Data set [8] can be described thus: Ratio of drug level in brain to plasma in rat at 2 mg/kg, iv and 10 mg/kg, po measured at 1 hr. The note with it: read-out: BPR. It counts as ADME, organism-based.
Data set [9] can be described thus: Oral bioavailability in rat at 10 mg/kg. The settings on record: in vivo. It counts as ADME, organism-based.
The nature of data set [10]: Clearance in mouse at 5 mg/kg, iv and 10 mg/kg, po. The settings on record: in vivo. It counts as ADME, organism-based.
Data set [11] in a line: Cmax in mouse at 10 mg/kg, po. It counts as ADME, organism-based. Details: dose 10 mg/kg, route oral. The note with it: in vivo.
The nature of data set [12]: Half life in mouse at 10 mg/kg, po. It counts as ADME, organism-based. Details: dose 10 mg/kg, route oral. The settings on record: in vivo.
A short description of data set [13]: Oral bioavailability in mouse at 10 mg/kg. It counts as ADME, organism-based. The settings on record: in vivo.

pKi: −log10 of the molar value. Calls of active or inactive are those of the source.

The pKi is the negative decadic logarithm of the Ki, by convention in mol/L. With `Nc1nc(-c2cccc(Cl)n2)nc2sc(Cc3ccccc3)cc12`, the figures for the negative logarithm of the Ki (pKi) at Adenosine receptor A1 and at Adenosine receptor A2a were less than 6.00 and 6.76, respectively.
For the compound `Nc1nc(-c2ncccn2)nc2sc(Cc3ccccc3)cc12`, the negative-log Ki (pKi) at Adenosine receptor A2a was 7.77.
In the case of `Cc1ccc(-c2nc(N)c3cc(-c4ccccc4)sc3n2)o1`, the negative logarithm of the Ki (pKi) is 6.28 on Adenosine receptor A1 and 7.17 at Adenosine receptor A2a.
For the compound `Cc1ccc(-c2nc(N)c3cc(Cc4ccccc4F)sc3n2)o1`, the pKi was more than 7.80 at Adenosine receptor A1 and 8.43 at Adenosine receptor A2a.
Regarding `CC(C)c1ccc(-c2nc(N)c3cc(Cc4ccccc4)sc3n2)o1`, the negative logarithm of the Ki (pKi) on Adenosine receptor A1 is 6.55; on Adenosine receptor A2a, 6.77.
For `N#Cc1cccc(-c2nc(N)c3cc(Cc4ccccc4Cl)sc3n2)c1`, the negative-log Ki (pKi) is 7.61 on Adenosine receptor A1 and 8.85 on Adenosine receptor A2a.
In the case of `CC(c1ccccc1)c1cc2c(N)nc(-c3cccc(C#N)c3)nc2s1` (configuration not stated), the negative-log Ki (pKi) was 5.75 on Adenosine receptor A1 and 6.47 at Adenosine receptor A2a.
On to `Cc1ccc(-c2nc(N)c3cc(CCc4ccccc4)sc3n2)o1`, for which the negative-log Ki (pKi) at Adenosine receptor A2a is 6.69.
As to `Cc1csc(-c2nc(N)c3cc(C(C)c4ccccc4)sc3n2)n1` (configuration not stated), the results for the pKi at Adenosine receptor A1 and on Adenosine receptor A2a were 5.85 and 7.00, respectively.
Consider `Nc1nc(-c2ccccc2)nc2sc(Cc3ccccc3)cc12`, for which the pKi at Adenosine receptor A1 was 6.82; at Adenosine receptor A2a it was 7.53.
The like results for `Nc1nc(C2CCCO2)nc2sc(Cc3ccccc3)cc12` (configuration not stated) were, in that order, 5.53 and 6.17.
For the compound `N#Cc1cncc(-c2nc(N)c3cc(Cc4ccccc4)sc3n2)c1`, the pKi is 5.94 on Adenosine receptor A1 and less than 6.77 at Adenosine receptor A2a.
Consider `N#Cc1cccc(-c2nc(N)c3cc(C4(c5ccccc5)CC4)sc3n2)c1`, for which, on Adenosine receptor A1, the pKi was less than 6.21.
As for `Nc1nc(-c2ccccn2)nc2sc(Cc3ccccc3)cc12`, the results for the pKi on Adenosine receptor A1 and on Adenosine receptor A2a were 5.43 and 6.23, respectively.
Consider `Cc1ccc(-c2nc(N)c3cc(C(C)c4ccccc4)sc3n2)o1` (configuration not stated), for which the pKi on Adenosine receptor A1 was 6.36; on Adenosine receptor A2a, 7.40.
With `Nc1nc(-c2cnco2)nc2sc(Cc3ccccc3)cc12`, the values for the negative logarithm of the Ki (pKi) at Adenosine receptor A1 and at Adenosine receptor A2a were 6.97 and 8.05, respectively. In the data set on Mus musculus [1], the outcome was inactive.
Take `C=C(c1ccccc1)c1cc2c(N)nc(-c3cccc(C#N)c3)nc2s1`: the negative logarithm of the Ki (pKi) at Adenosine receptor A1 was less than 6.00.
With `Cc1ccc(-c2nc(N)c3ccsc3n2)o1`, the pKi at Adenosine receptor A1 was 6.31; at Adenosine receptor A2a, 6.96.
In the case of `Nc1nc(-c2ccncc2)nc2sc(Cc3ccccc3)cc12`, the negative logarithm of the Ki (pKi) at Adenosine receptor A1 is 6.09; at Adenosine receptor A2a, 7.17.
The like results for `N#Cc1cccc(-c2nc(N)c3cc(Cc4ccccc4F)sc3n2)c1` were, in that order, more than 7.80 and 8.14.
For `Nc1nc(-c2ncco2)nc2sc(Cc3ccccc3)cc12`, the negative logarithm of the Ki (pKi) is 6.51 at Adenosine receptor A1 and 8.33 on Adenosine receptor A2a. Further, the outcome in the data set with Mus musculus [1] was inactive.
Regarding `Cc1csc(-c2nc(N)c3cc(Cc4ccccc4)sc3n2)n1`, the outcome in the data set on Mus musculus [2] was inactive.
In the case of `Cc1ccc(-c2nc(N)c3cc(Cc4ccccc4Cl)sc3n2)o1`, the negative-log Ki (pKi) at Adenosine receptor A1 is 7.58; on Adenosine receptor A2a it was 8.54.
As a reminder, the ED50 is the midpoint of the dose-response relation. Regarding `COc1ccccc1Cc1cc2c(N)nc(-c3ccc(C)o3)nc2s1`, the pKi on Adenosine receptor A1 is 6.91; at Adenosine receptor A2a it was 7.96. In the data set with Mus musculus [2], the outcome was Active. Also, the ED50 with Mus musculus [3] was determined as 0.8 mg/kg.
Consider `N#Cc1cccc(-c2nc(N)c3cc(Cc4ccccc4)sc3n2)c1`, for which the negative logarithm of the Ki (pKi) on Adenosine receptor A1 is 6.65; on Adenosine receptor A2a it was 7.94. Besides, the result in the data set with Mus musculus [1] was Active. Also, the 50% effective dose (ED50) with Mus musculus [3] was less than 1 mg/kg.
One may read the half-life as the time needed for the level to fall by half in the phase considered. One may read the Cmax as the highest concentration seen after dosing. The term bioavailability denotes the share of a dose that reaches the circulation, judged against a reference dose that is usually intravenous. Take `Cc1ccc(-c2nc(N)c3cc(Cc4ccccc4)sc3n2)o1`: the clearance turned out to be 65 mL/min/kg in data set [4] and 69 mL/min/kg in [10]. The negative-log Ki (pKi) at Adenosine receptor A1 is 6.53. Further, the half-life in [5] was 42 min; in [12], 18 min. Further, the Cmax in data set [6] came to 2.98 µM; in data set [11] it was 5.01 µM. In the data set on Mus musculus [7], the result was inactive. Moreover, the Kp at 1 h in data set [8] amounted to 1.2. Besides, the bioavailability stood at 83% in data set [9] and 5% in data set [13]. For the same compound, the outcome in the data set with Mus musculus [2] was Active. The ED50 in the data set with Mus musculus [3] was 2.2 mg/kg.
For `Nc1nc(-c2ccccc2)nc2sc(-c3ccccc3)cc12`, the pKi at Adenosine receptor A1 was 6.63; at Adenosine receptor A2a, 6.68.
The like results for `N#Cc1cccc(-c2nc(N)c3cc(Cc4ccccc4)sc3n2)n1` were, in that order, less than 6.00 and 7.59.
Consider `Nc1nc(-c2cccc(C(F)(F)F)c2)nc2sc(Cc3ccccc3)cc12`, for which the negative-log Ki (pKi) at Adenosine receptor A1 was less than 6.00.
Still for that read-out and setting: the result for `Cc1csc(-c2nc(N)c3cc(C4(c5ccccc5)CC4)sc3n2)n1` reads less than 6.21.
On to `Cc1csc(-c2nc(N)c3cc(Cc4ccccc4Cl)sc3n2)n1`, for which the pKi on Adenosine receptor A1 was 7.30; at Adenosine receptor A2a it was 8.16.
On to `C=C(c1ccccc1)c1cc2c(N)nc(-c3nc(C)cs3)nc2s1`, for which, on Adenosine receptor A1, the negative logarithm of the Ki (pKi) is less than 6.23.
`Nc1nc(-c2ccccc2)nc2sc(CCc3ccccc3)cc12`: the negative logarithm of the Ki (pKi) on Adenosine receptor A2a was less than 6.00.
In the case of `Nc1nc(-c2ccccc2)nc2sccc12`, the pKi on Adenosine receptor A2a was 6.30.
For the compound `Cc1csc(-c2nc(N)c3cc(Cc4ccccc4F)sc3n2)n1`, the results for the pKi at Adenosine receptor A1 and on Adenosine receptor A2a were 7.54 and 8.01, respectively.
